# Results taken from patent US20090291977A1, “Chromane Derivatives Useful As Acid Pump Antagonists” (priority 2004, published 2009).
# Molecular target: T1, Porcine gastric H+/K+-ATPase (Sus scrofa, UniProt P19156)
# T1 construct: The gastric vesicles were collected from interface on 0.25 M sucrose layer containing 7% Ficoll; from tissue; host or cells: mucous membrane of fresh porcine stomachs (gastric vesicles)
# Experiment: Ion-leaky porcine gastric H+/K+-ATPase inhibition
# Type: biochemical
# Conditions: ion-leaky vesicles, 5 mM KCl, pH 6.4, 37° C., 30 minutes
# Protocol: The porcine gastric vesicles for Porcine gastric H^+/K^+-ATPase inhibition assays were prepared from mucous membrane in fresh porcine stomachs by homogenization with a tight-fitted polytetrafluoroethylene (Teflone®) homogenizer in 0.25 M sucrose at 4° C. The crude pellet was removed with centrifugation at 20,000 g for 30 min. Then supernatant was centrifuged at 100,000 g for 30 min. The resulting pellet was re-suspended in 0.25 M sucrose, and then subjected to density gradient centrifugation at 132,000 g for 90 min. The gastric vesicles were collected from interface on 0.25 M sucrose layer containing 7% Ficoll™ PM400(Amersham Biosciences). This procedure was performed in a cold room.
# Ion-leaky porcine gastric H^+/K^+-ATPase-inhibition was measured according to the modified method described in Biochemical Pharmacology, 1988, 37, 2231-2236.
# The isolated vesicles were lyophilized, and then kept in deep-freezer until use. For enzyme assay, lyophilized vesicles were reconstituted with 3 mM MgSO4 containing 40 mM Bis-tris (pH 6.4 at 37° C.).
# Enzyme reaction was performed incubating 5 mM KCl, 3 mM Na2ATP, 3 mM MgSO4 and 1.0 μg of reconstituted vesicles for 30 minutes at 37° C. in a final 60 μl of reaction mixture (40 mM Bis-tris, pH 6.4) with or without the test compound. Enzyme reaction was stopped by adding 10% sodium dodecyl sulphate (SDS). Released inorganic phosphate from ATP was detected by incubation with mixture of 1 part of 35 mM ammonium molybdate tetrahydrate in 15 mM Zinc acetate hydrate and 4 parts of 10% ascorbic acid (pH 5.0), resulting in phosphomolybdate, which has optical density at 750 nm.
# T1 sequence (P19156 2-1034 limits assumed): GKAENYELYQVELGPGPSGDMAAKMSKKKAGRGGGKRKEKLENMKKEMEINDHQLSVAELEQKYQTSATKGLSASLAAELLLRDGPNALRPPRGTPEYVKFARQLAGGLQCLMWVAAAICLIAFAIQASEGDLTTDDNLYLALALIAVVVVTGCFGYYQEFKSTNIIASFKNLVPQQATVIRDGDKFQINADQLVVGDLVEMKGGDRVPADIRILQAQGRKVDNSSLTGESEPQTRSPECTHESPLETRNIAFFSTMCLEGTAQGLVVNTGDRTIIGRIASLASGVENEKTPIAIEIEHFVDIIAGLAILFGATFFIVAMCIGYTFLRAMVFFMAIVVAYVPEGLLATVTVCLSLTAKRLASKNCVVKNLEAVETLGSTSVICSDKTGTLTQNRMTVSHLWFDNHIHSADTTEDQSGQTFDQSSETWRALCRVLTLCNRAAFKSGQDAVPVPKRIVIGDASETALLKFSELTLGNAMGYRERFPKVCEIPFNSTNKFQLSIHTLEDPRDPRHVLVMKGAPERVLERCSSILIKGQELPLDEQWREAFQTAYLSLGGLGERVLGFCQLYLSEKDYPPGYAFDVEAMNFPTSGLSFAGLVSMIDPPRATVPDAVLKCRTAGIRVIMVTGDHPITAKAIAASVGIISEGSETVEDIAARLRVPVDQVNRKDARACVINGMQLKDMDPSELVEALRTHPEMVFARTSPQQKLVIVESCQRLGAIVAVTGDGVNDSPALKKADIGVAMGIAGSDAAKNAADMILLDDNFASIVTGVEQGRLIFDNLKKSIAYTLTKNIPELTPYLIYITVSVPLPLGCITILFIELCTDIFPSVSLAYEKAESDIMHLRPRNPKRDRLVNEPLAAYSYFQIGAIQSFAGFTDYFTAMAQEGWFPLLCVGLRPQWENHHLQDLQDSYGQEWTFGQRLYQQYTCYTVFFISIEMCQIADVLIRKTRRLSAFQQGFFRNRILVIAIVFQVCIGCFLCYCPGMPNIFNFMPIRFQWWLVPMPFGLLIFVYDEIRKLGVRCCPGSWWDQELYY
# T1 sequence (P18434 whole entry partner): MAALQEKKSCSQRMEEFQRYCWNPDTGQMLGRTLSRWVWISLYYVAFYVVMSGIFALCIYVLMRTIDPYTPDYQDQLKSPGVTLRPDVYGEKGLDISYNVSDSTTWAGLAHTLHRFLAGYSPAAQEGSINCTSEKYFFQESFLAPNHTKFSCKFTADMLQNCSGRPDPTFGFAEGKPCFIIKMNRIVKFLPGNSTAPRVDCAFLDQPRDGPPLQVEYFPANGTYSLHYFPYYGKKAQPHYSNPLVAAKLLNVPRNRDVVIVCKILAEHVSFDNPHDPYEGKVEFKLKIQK
molecule,measurement,value
"Cc1nc2c(NC3CCOc4ccc(F)cc43)cc(C(=O)N(C)C)cn2c1C (single isomer, unassigned) [Example 12-3, 8-[(6-Fluoro-3,4-dihydro-2H-chromen-4-yl)amino]-N,N,2,3-tetramethylimidazo[1,2-a]pyridine-6-carboxamide]",IC50,81.1 nM
"Cc1nc2c(NC3CCOc4ccccc43)cc(C(=O)N(C)C)cn2c1C (racemic) [Example 1-1, 8-(3,4-Dihydro-2H-chromen-4-ylamino)-N,N,2,3-tetramethylimidazo[1,2-a]pyridine-6-carboxamide]",IC50,85 nM
"Cc1cccc2c1C(Nc1cc(C(=O)N(C)CCO)cn3c(C)c(C)nc13)CCO2 (single isomer, unassigned; (-)) [Example 5-2, (−)-N-(2-Hydroxyethyl)-N,2,3-trimethyl-8-[(5-methyl-3,4-dihydro-2H-chromen-4-yl)amino]imidazo[1,2-a]pyridine-6-carboxamide]",IC50,86.2 nM
"Cc1nc2c(NC3CCOc4ccccc43)cc(C(=O)N(C)CCO)cn2c1C (single isomer, unassigned; (+)) [Example 2-3, (+)-8-(3,4-Dihydro-2H-chromen-4-ylamino)-N-(2-hydroxyethyl)-N,2,3-trimethylimidazo[1,2-a]pyridine-6-carboxamide]",IC50,64 nM
"8-3,4-Dihydro-1H-isochromen-4-ylamino)-N,N,2,3-tetramethylimidazo[1,2-a]pyridine-6-carboxamide [Example 3-1]",IC50,103 nM
"Cc1nc2c(NC3CCOc4cc(F)cc(F)c43)cc(C(=O)N(C)C)cn2c1C (racemic) [Example 8-1, 8-[(5,7-Difluoro-3,4-dihydro-2H-chromen-4-yl)amino]-N,N,2,3-tetramethylimidazo[1,2-a]pyridine-6-carboxamide]",IC50,20 nM
"Cc1cccc2c1C(Nc1cc(C(=O)N(C)C)cn3c(C)c(C)nc13)CCO2 (single isomer, unassigned) [Example 17-2, N,N,2,3-Tetramethyl-8-[(5-methyl-3,4-dihydro-2H-chromen-4-yl)amino]imidazo[1,2-a]pyridine-6-carboxamide]",IC50,43 nM
"Cc1nc2c(NC3CCOc4cccc(Cl)c43)cc(C(=O)N(C)CCO)cn2c1C (single isomer, unassigned) [Example 19-3, 8-[(5-Chloro-3,4-dihydro-2H-chromen-4-yl)amino]-N-(2-hydroxyethyl)-N,2,3-trimethylimidazo[1,2-a]pyridine-6-carboxamide]",IC50,500 nM
"Cc1nc2c(NC3CCOc4cc(F)cc(F)c43)cc(C(=O)N(C)C)cn2c1C (single isomer, unassigned) [Example 8-3, 8-[(5,7-Difluoro-3,4-dihydro-2H-chromen-4-yl)amino]-N,N,2,3-tetramethylimidazo[1,2-a]pyridine-6-carboxamide]",IC50,49 nM
"Cc1nc2c(NC3CCOc4cc(F)cc(F)c43)cc(C(=O)N(C)CCO)cn2c1C (single isomer, unassigned) [Example 9-3, 8-[(5,7-Difluoro-3,4-dihydro-2H-chromen-4-yl)amino]-N-(2-hydroxyethyl)-N,2,3-trimethylimidazo[1,2-a]pyridine-6-carboxamide]",IC50,53.2 nM
"Cc1nc2c(NC3CCOc4c(F)cccc43)cc(C(=O)N(C)C)cn2c1C (single isomer, unassigned) [Example 14-3, 8-[(8-Fluoro-3,4-dihydro-2H-chromen-4-yl)amino]-N,N,2,3-tetramethylimidazo[1,2-a]pyridine-6-carboxamide]",IC50,170 nM
"Cc1nc2c(NC3COCc4ccccc43)cc(C(=O)N(C)CCO)cn2c1C (single isomer, unassigned; (+)) [Example 4-3, (+)-8-(3,4-Dihydro-1H-isochromen-4-ylamino)-N-(2-hydroxyethyl)-N,2,3-trimethylimidazo[1,2-a]pyridine-6-carboxamide]",IC50,112 nM
"Cc1nc2c(NC3CCOc4cccc(F)c43)cc(C(=O)N(C)CCO)cn2c1C (racemic) [Example 11-1, 8-[(5-Fluoro-3,4-dihydro-2H-chromen-4-yl)amino]-N-(2-hydroxyethyl)-N,2,3-trimethylimidazo[1,2-a]pyridine-6-carboxamide]",IC50,48.6 nM
"Cc1nc2c(NC3CCOc4ccc(F)cc43)cc(C(=O)N(C)C)cn2c1C (racemic) [Example 12-1, 8-[(6-Fluoro-3,4-dihydro-2H-chromen-4-yl)amino]-N,N,2,3-tetramethylimidazo[1,2-a]pyridine-6-carboxamide]",IC50,20.8 nM
"Cc1ccc2c(c1)OCCC2Nc1cc(C(=O)N(C)CCO)cn2c(C)c(C)nc12 (single isomer, unassigned) [Example 16-2, N-(2-Hydroxyethyl)-N,2,3-trimethyl-8-[(7-methyl-3,4-dihydro-2H-chromen-4-yl)amino]imidazo[1,2-a]pyridine-6-carboxamide]",IC50,100 nM
"Cc1nc2c(NC3CCOc4cccc(F)c43)cc(C(=O)N(C)CCO)cn2c1C (single isomer, unassigned) [Example 11-3, 8-[(5-Fluoro-3,4-dihydro-2H-chromen-4-yl)amino]-N-(2-hydroxyethyl)-N,2,3-trimethylimidazo[1,2-a]pyridine-6-carboxamide]",IC50,101 nM
"Cc1nc2c(NC3COCc4ccccc43)cc(C(=O)N(C)C)cn2c1C (single isomer, unassigned; (-)) [Example 3-2, (−)-8-(3,4-Dihydro-1H-isochromen-4-ylamino)-N,N,2,3-tetramethylimidazo[1,2-a]pyridine-6-carboxamide]",IC50,125 nM
"Cc1nc2c(NC3CCOc4cc(F)ccc43)cc(C(=O)N(C)C)cn2c1C (single isomer, unassigned) [Example 6-2, 8-[(7-Fluoro-3,4,dihydro-2H-chromen-4-yl)amino]-N,N,2,3-tetramethylimidazo[1,2-a]pyridine-6-carboxamide]",IC50,40.9 nM
"Cc1nc2c(NC3CCOc4cccc(Cl)c43)cc(C(=O)N(C)C)cn2c1C (single isomer, unassigned) [Example 18-3, 8-[(5-Chloro-3,4-dihydro-2H-chromen-4-yl)amino]-N,N,2,3-tetramethylimidazo[1,2-a]pyridine-6-carboxamide]",IC50,240 nM
"Cc1nc2c(NC3CCOc4cc(F)ccc43)cc(C(=O)N(C)CCO)cn2c1C (single isomer, unassigned) [Example 7-3, 8-[(7-Fluoro-3,4-dihydro-2H-chromen-4-yl)amino]-N-(2-hydroxyethyl)-N,2,3-trimethylimidazol[1,2-a]pyridlne-6-carboxamide]",IC50,55.9 nM
"Cc1nc2c(NC3CCOc4ccccc43)cc(C(=O)N(C)C)cn2c1C (single isomer, unassigned; (-)) [Example 1-2, (−)-8-(3,4-Dihydro-2H-chromen-4-ylamino)-N,N,2,3-tetramethylimidazo[1,2-a]pyridine-6-carboxamide]",IC50,61.9 nM
"Cc1nc2c(NC3CCOc4cc(F)ccc43)cc(C(=O)N(C)C)cn2c1C (racemic) [Example 6-1, 8-[(7-Fluoro-3,4,dihydro-2H-chromen-4-yl)amino]-N,N,2,3-tetramethylimidazo[1,2-a]pyridine-6-carboxamide]",IC50,13.9 nM
"Cc1nc2c(NC3CCOc4ccccc43)cc(C(=O)N(C)C)cn2c1C (single isomer, unassigned; (+)) [Example 1-3, (+)-8-(3,4-Dihydro-2H-chromen-4-ylamino)-N,N,2,3-tetramethylimidazo[1,2-a]pyridine-6-carboxamide]",IC50,27.8 nM
"Cc1nc2c(NC3CCOc4cccc(F)c43)cc(C(=O)N(C)CCO)cn2c1C (single isomer, unassigned) [Example 11-2, 8-[(5-Fluoro-3,4-dihydro-2H-chromen-4-yl)amino]-N-(2-hydroxyethyl)-N,2,3-trimethylimidazo[1,2-a]pyridine-6-carboxamide]",IC50,53.8 nM
"Cc1cccc2c1C(Nc1cc(C(=O)N(C)C)cn3c(C)c(C)nc13)CCO2 (single isomer, unassigned) [Example 17-3, N,N,2,3-Tetramethyl-8-[(5-methyl-3,4-dihydro-2H-chromen-4-yl)amino]imidazo[1,2-a]pyridine-6-carboxamide]",IC50,91 nM
"Cc1nc2c(NC3CCOc4cc(F)ccc43)cc(C(=O)N(C)CCO)cn2c1C (single isomer, unassigned) [Example 7-2, 8-[(7-Fluoro-3,4-dihydro-2H-chromen-4-yl)amino]-N-(2-hydroxyethyl)-N,2,3-trimethylimidazol[1,2-a]pyridlne-6-carboxamide]",IC50,20.5 nM
"Cc1nc2c(NC3CCOc4cccc(Cl)c43)cc(C(=O)N(C)CCO)cn2c1C (racemic) [Example 19-1, 8-[(5-Chloro-3,4-dihydro-2H-chromen-4-yl)amino]-N-(2-hydroxyethyl)-N,2,3-trimethylimidazo[1,2-a]pyridine-6-carboxamide]",IC50,390 nM
"Cc1nc2c(NC3COCc4ccccc43)cc(C(=O)N(C)C)cn2c1C (single isomer, unassigned; (+)) [Example 3-3, (+)-8-(3,4-Dihydro-1H-isochromen-4-ylamino)-N,N,2,3-tetramethylimidazo[1,2-a]pyridine-6-carboxamide]",IC50,67.6 nM
